Reference: the OPERA property sets (Mansouri et al. 2018)

Details: for log10 BCF / log10 biotransformation half-life (days): fish

| SMILES | boiling point [°C] | melting point [°C] | other results |
| --- | --- | --- | --- |
| CCOC(=O)CC | 99.1 | -73.9 | log10 Koa: 3.15; log10 vapour pressure (mmHg): 1.55 |
| CCOC(=O)CS | 157 | – | – |
| COCC(C)OC(C)=O (configuration not stated) | 146 | – | log10 Koc (L/kg): 0.36; log10 vapour pressure (mmHg): 0.593 |
| O=[N+]([O-])c1ccc(N=Nc2ccc(O)cc2O)cc1 | – | 200 | – |
| CC(=O)OCC(=O)[C@H]1CC[C@H]2[C@@H]3CCC4=CC(=O)CC[C@]4(C)[C@H]3CC[C@]12C | – | 157 | – |
| CCCCCCCC(=O)OCCC | 226 | -46.2 | – |
| CC(C)=CCCC(C)CC(=O)O (configuration not stated) | – | 257 | – |
| Clc1cc(Cl)c2cccc(Cl)c2c1 | – | – | log10 Koa: 7.32 |
| CCC(CO)CC(C)C (configuration not stated) | – | – | log10 vapour pressure (mmHg): -0.625 |
| CCN(CC)CCOC(=O)c1ccc(N)cc1.Cl | – | 156 | – |
| CNc1ccccc1C(=O)O | – | 180 | ready biodegradability: readily biodegradable |
| Clc1ccc(Cl)s1 | 162 | -40.5 | log10 vapour pressure (mmHg): 0.934 |
| CCC(=O)Nc1ccc(Cl)c(Cl)c1 | 351 | 92 | log10 Koc (L/kg): 2.17; log10 vapour pressure (mmHg): -6.04; ready biodegradability: readily biodegradable; log10 BCF: 1.84 |
| C[C@]12CC[C@H](O)C[C@H]1CC[C@@H]1[C@@H]2[C@H](O)C[C@]2(C)[C@@H](c3ccc(=O)oc3)CC[C@]12O | – | 254 | – |
| Oc1ccc(C(F)(F)F)cc1 | – | 46 | – |
| Brc1ccc2c(c1)Cc1ccccc1-2 | – | 114 | – |
| CCCC(=O)c1ccc(Cl)cc1 | – | 19.5 | – |
| [Se]=C=[Se] | 126 | -45.5 | – |
| CSC#N | 133 | -5 | log10 vapour pressure (mmHg): 1.08 |
| COC(=O)c1cccc(C)c1S(=O)(=O)NC(=O)Nc1nc(OCC(F)(F)F)nc(N(C)C)n1 | – | – | log10 Koc (L/kg): 1.84 |
| CCCCN(C)C(=O)Nc1ccc(Cl)c(Cl)c1 | – | 102 | log10 Koc (L/kg): 3.4; ready biodegradability: not readily biodegradable |
| O=C1c2cccc(O)c2C(=O)c2c(O)cccc21 | – | 193 | – |
| Cc1cc2c(cc1C)CCCC2 | 252 | 10 | – |

| SMILES | boiling point [°C] | melting point [°C] | other results |
| --- | --- | --- | --- |
| c1ccc2c(Nc3cccc4ccccc34)cccc2c1 | – | 115 | – |
| ON=Cc1ccncc1 | – | 132 | – |
| Oc1ccc2c(O)cccc2c1 | – | 138 | – |
| C=CCC(C)C(C)C (configuration not stated) | 109 | – | – |
| CCc1ccc(C)cc1 | 162 | -62.3 | log10 biodegradation half-life (days): 0.602; log10 vapour pressure (mmHg): 0.477 |
| COc1ccc2c(c1OC)C(=O)O[C@@H]2[C@H]1c2c(cc3c(c2OC)OCO3)CCN1C | – | 176 | – |
| CCCSc1ccc2[nH]c(NC(=O)OC)nc2c1 | – | 209 | – |
| O=C(O)c1ccncc1 | – | 315 | – |
| Clc1cc(Cl)c(C(Cl)Cl)cc1Cl | 280 | – | – |
| CCNc1nsc2ccccc12 | – | 78 | – |
| CCC(C)CC(C)=O (configuration not stated) | 144 | – | – |
| Oc1ccc2ccc(O)cc2c1 | – | 193 | – |
| Clc1cc(Cl)c(Cl)c(-c2ccc(Cl)c(Cl)c2Cl)c1 | – | – | log10 Henry constant (atm·m³/mol): -4.43 |
| CCC(=O)c1ccc(N)cc1 | – | 140 | – |
| CCc1cccc(CC)c1N | 236 | 3.5 | log10 vapour pressure (mmHg): -2.42 |
| CCCOP(=O)(OCCC)Oc1ccc(SC)cc1 | – | – | log10 vapour pressure (mmHg): -6.05 |
| CCOc1ccc(C)cc1 | 188 | – | – |
| CCOCOCOCC | 141 | – | – |
| CC(=S)Nc1ccccc1 | – | 77.5 | – |
| CCCCCCCCCCCCCCCCC(CCC)c1ccccc1 (configuration not stated) | – | 31.4 | – |
| CCc1cccc2ccccc12 | 259 | -13.9 | log10 Henry constant (atm·m³/mol): -3.16; log10 Koc (L/kg): 3.78; log10 vapour pressure (mmHg): -1.6 |
| Cc1ccccc1C=O | 200 | – | – |
| CCCC(O)C(=O)O (configuration not stated) | – | 34 | – |

| SMILES | boiling point [°C] | melting point [°C] | other results |
| --- | --- | --- | --- |
| C#C[C@]1(O)CC[C@H]2[C@@H]3CCc4cc(OC)ccc4[C@H]3CC[C@@]21C | – | 150 | – |
| O=C1C=CC(=O)N1 | – | 94 | – |
| Cc1[nH]ncc1Br | – | 76.5 | – |
| C1=CCCCC=C1 | 120 | -110 | – |
| CCC(=O)C(C)CC (configuration not stated) | 134 | – | – |
| CC(C=CC=CC(C)=CC=CC(C)=CC=C1C(C)=CC(=O)CC1(C)C)=CC=CC(C)=CC=C1C(C)=CC(=O)CC1(C)C | – | 219 | – |
| COC(=O)NS(=O)(=O)c1ccc(N)cc1 | – | 144 | log10 Koc (L/kg): 1.6 |
| O=c1c2ccccc2ccc2ccccc12 | – | 88.5 | – |
| Brc1cc(Br)c(Oc2ccc(Br)c(Br)c2)c(Br)c1 | – | – | log10 BCF: 6.29 |
| C[Si](C)(Cl)CCl | 116 | – | – |
| CCCCCCCC(=O)OCCCCCC | 277 | -30.6 | – |
| FC(F)(F)C(F)(F)C(F)(F)C(F)(F)C(F)(F)C(F)(F)F | 56.6 | -87.1 | log10 vapour pressure (mmHg): 2.34 |
| CN1CCC(CN2c3ccccc3Sc3ccccc32)C1 (configuration not stated) | – | 87.5 | – |
| CCCCCCCCC=CCCCCCCCC(=O)OCC(O)C1OCC(O)C1O (configuration not stated) | – | – | ready biodegradability: readily biodegradable |
| C1CC2CCC1CC2 | – | – | log10 vapour pressure (mmHg): 0.523 |
| C=CCC(C(C)=O)C(C)=O | 199 | – | – |
| Cc1cc(=O)oc2cc(O)ccc12 | – | 196 | – |
| Cc1ncc2n1-c1ccc(Cl)cc1C(c1ccccc1F)=NC2 | – | 159 | – |
| CCCCCCCC[Si](Cl)(Cl)Cl | 232 | – | – |
| CC(C)(N)Cc1ccccc1Cl | – | – | ready biodegradability: not readily biodegradable |
| Cl[SiH2]c1ccccc1 | 162 | – | – |
| CC(=O)Oc1c(C)cc(OCC(O)CNC(C)C)c(C)c1C (configuration not stated) | – | 106 | – |
| CCC(O)C(=O)O (configuration not stated) | – | 44.2 | – |

| SMILES | boiling point [°C] | melting point [°C] | other results |
| --- | --- | --- | --- |
| Oc1cccc(S)c1 | – | 16.5 | – |
| CC1CCC(O)CC1C (configuration not stated) | 189 | – | – |
| C=CCC(O)C=C (configuration not stated) | 134 | – | – |
| Cc1cc(C(C)(C)C)cc(C)c1O | 248 | 82.4 | – |
| OC[C@H]1O[C@H]1c1ccccc1 | – | 26.5 | – |
| Oc1cccc(Cl)c1O | – | 48.5 | – |
| CC(C)C(C)(C)C(C)C | 142 | -102 | log10 vapour pressure (mmHg): 0.946 |
| CCCCOC(=O)c1ccc(C(=O)OCCCC)c(C(=O)OCCCC)c1 | – | – | ready biodegradability: readily biodegradable |
| CC(C)(C)[C@@H](O)[C@@H](Cc1ccc(Cl)cc1)n1cncn1 (single isomer, unassigned) | – | 166 | log10 Koc (L/kg): 2.7; log10 vapour pressure (mmHg): -8.12 |
| O=[N+]([O-])c1cccc2c([N+](=O)[O-])cccc12 | – | 219 | ready biodegradability: not readily biodegradable |
| c1cscn1 | 118 | – | log10 vapour pressure (mmHg): 1.23 |
| CCOC(=O)CCC(=O)O | – | 8 | – |
| CCCSc1ccccc1 | 220 | -45 | – |
| C=C(C)C=O | 68.4 | -81 | log10 Henry constant (atm·m³/mol): -3.63; log10 vapour pressure (mmHg): 2.19 |
| Clc1ccc(-c2c(Cl)c(Cl)cc(Cl)c2Cl)c(Cl)c1 | – | – | log10 Henry constant (atm·m³/mol): -4.29 |
| C=C(C)CC(C)(C)C | 101 | -93.5 | log10 vapour pressure (mmHg): 1.65; log10 BCF: 2.78; log10 biotransformation half-life (days): 0.12 |
| CC(=O)[C@H]1CC[C@H]2[C@@H]3CC[C@@H]4CC(=O)CC[C@]4(C)[C@H]3CC[C@]12C | – | 123 | – |
| ClC1=C(Cl)C2(Cl)C3C4OC4C(Cl)C3C1(Cl)C2(Cl)Cl (configuration not stated) | – | 160 | log10 Henry constant (atm·m³/mol): -4.68; log10 Koc (L/kg): 4.02; log10 vapour pressure (mmHg): -4.71; log10 biotransformation half-life (days): 2.2 |
| CN(C)CCCOc1nn(Cc2ccccc2)c2ccccc12.Cl | – | 160 | – |
| S=C1SCCS1 | 307 | 35 | – |
| CCC1(CCC(C)C)C(=O)NC(=O)NC1=O | – | 157 | – |
| CCCCOP(=O)(O)OCCCC | – | -13 | ready biodegradability: not readily biodegradable |
| Cc1ccc(S(=O)(=O)Oc2c(C(=O)c3ccc(Cl)cc3Cl)c(C)nn2C)cc1 | – | 118 | – |
